In the NIST ThermoML archive (doi:10.1021/je501133u):
Numbers after ± are expanded uncertainties.

How the values were obtained:
[1] = 100 kPa, Liquid; for viscosity: Falling or rolling sphere viscometry; for mass density: Vibrating tube method
[2] = xn = mol fraction of the nth substance listed; settings: 100 kPa, Liquid, x1 = 1; for viscosity: Falling or rolling sphere viscometry; for mass density: Vibrating tube method

Compound | viscosity ([1]; 293.15 K) [mPa·s] | mass density ([1]; 293.15 K) [kg/m3] | viscosity ([1]; 298.15 K) [mPa·s] | mass density ([1]; 298.15 K) [kg/m3] | viscosity ([1]; 303.15 K) [mPa·s] | mass density ([1]; 303.15 K) [kg/m3] | viscosity ([1]; 308.15 K) [mPa·s] | mass density ([1]; 308.15 K) [kg/m3] | viscosity ([1]; 313.15 K) [mPa·s] | mass density ([1]; 313.15 K) [kg/m3] | viscosity ([1]; 318.15 K) [mPa·s] | mass density ([1]; 318.15 K) [kg/m3] | viscosity ([1]; 323.15 K) [mPa·s] | mass density ([1]; 323.15 K) [kg/m3] | viscosity ([1]; 328.15 K) [mPa·s] | mass density ([1]; 328.15 K) [kg/m3] | viscosity ([2]; 293.15 K) [mPa·s] | mass density ([2]; 293.15 K) [kg/m3] | viscosity ([2]; 298.15 K) [mPa·s] | mass density ([2]; 298.15 K) [kg/m3] | further results
CCO [ethanol] | 1.15 ± 0.02 | 790.1 ± 0.2 | 1.07 ± 0.02 | 785.9 ± 0.2 | 0.97 ± 0.02 | 781.6 ± 0.2 | 0.89 ± 0.02 | 777.2 ± 0.2 | 0.81 ± 0.02 | 772.9 ± 0.2 | 0.76 ± 0.02 | 768.4 ± 0.2 | 0.68 ± 0.02 | 764 ± 0.2 | 0.63 ± 0.02 | 759.4 ± 0.2 | – | – | – | – | –
CCO [ethanol] + CCCCCCCO | – | – | – | – | – | – | – | – | – | – | – | – | – | – | – | – | 1.15 ± 0.02 | 790.1 ± 0.2 | 1.07 ± 0.02 | 785.9 ± 0.2 | viscosity ([2]; 303.15 K): 0.97 ± 0.02 mPa·s; mass density ([2]; 303.15 K): 781.6 ± 0.2 kg/m3; viscosity ([2]; 308.15 K): 0.89 ± 0.02 mPa·s; mass density ([2]; 308.15 K): 777.2 ± 0.2 kg/m3; viscosity ([2]; 313.15 K): 0.81 ± 0.02 mPa·s; mass density ([2]; 313.15 K): 772.9 ± 0.2 kg/m3; viscosity ([2]; 318.15 K): 0.76 ± 0.02 mPa·s; mass density ([2]; 318.15 K): 768.4 ± 0.2 kg/m3; viscosity ([2]; 323.15 K): 0.68 ± 0.02 mPa·s; mass density ([2]; 323.15 K): 764 ± 0.2 kg/m3; viscosity ([2]; 328.15 K): 0.63 ± 0.02 mPa·s; mass density ([2]; 328.15 K): 759.4 ± 0.2 kg/m3
CCO [ethanol] + CCCCCCO | – | – | – | – | – | – | – | – | – | – | – | – | – | – | – | – | 1.15 ± 0.02 | 790.1 ± 0.2 | 1.07 ± 0.02 | 785.9 ± 0.2 | viscosity ([2]; 303.15 K): 0.97 ± 0.02 mPa·s; mass density ([2]; 303.15 K): 781.6 ± 0.2 kg/m3; viscosity ([2]; 308.15 K): 0.89 ± 0.02 mPa·s; mass density ([2]; 308.15 K): 777.2 ± 0.2 kg/m3; viscosity ([2]; 313.15 K): 0.81 ± 0.02 mPa·s; mass density ([2]; 313.15 K): 772.9 ± 0.2 kg/m3; viscosity ([2]; 318.15 K): 0.76 ± 0.02 mPa·s; mass density ([2]; 318.15 K): 768.4 ± 0.2 kg/m3; viscosity ([2]; 323.15 K): 0.68 ± 0.02 mPa·s; mass density ([2]; 323.15 K): 764 ± 0.2 kg/m3; viscosity ([2]; 328.15 K): 0.63 ± 0.02 mPa·s; mass density ([2]; 328.15 K): 759.4 ± 0.2 kg/m3
CCCCCCCO [heptan-1-ol] | 7.15 ± 0.07 | 822.3 ± 0.3 | 6.07 ± 0.06 | 818.8 ± 0.3 | 5.18 ± 0.05 | 815.3 ± 0.3 | 4.44 ± 0.04 | 811.8 ± 0.3 | 3.83 ± 0.04 | 808.2 ± 0.3 | 3.33 ± 0.04 | 804.6 ± 0.3 | 2.89 ± 0.03 | 801 ± 0.3 | 2.54 ± 0.03 | 797.4 ± 0.3 | – | – | – | – | –
CCCCCCO [hexan-1-ol] | 5.35 ± 0.05 | 818.9 ± 0.3 | 4.56 ± 0.04 | 815.3 ± 0.3 | 3.9 ± 0.04 | 811.7 ± 0.3 | 3.36 ± 0.04 | 808.1 ± 0.3 | 2.91 ± 0.03 | 804.5 ± 0.3 | 2.54 ± 0.03 | 800.8 ± 0.3 | 2.23 ± 0.03 | 797.1 ± 0.3 | 1.97 ± 0.03 | 793.4 ± 0.3 | – | – | – | – | –
